Source: patent US12070458B2, “Therapeutic agent composition and method of use, for treatment of mild congnitive impairment, depression, and psychological disorders” (priority 2018, dated 2024)

Legend:
[1] = system: immobility behavior; experiment: Mouse Forced Swim Test (mFST); assay type: in vivo, mice; conditions: 1 mg/Kg i.v. thirty minutes before swim session
Experimental: Forced Swim Test (FST) is an animal model used to assess antidepressant compounds in preclinical studies. The FST was performed similar to the method of Porsolt et al. with modifications (Porsolt R D, Bertin A, Jalfre M. Behavioral despair in mice: a primary screening test for antidepressants. Arch Int Pharmacodyn Thér 1977; 229:327-36).
In this experiment, mice are forced to swim in an inescapable cylinder filled with water. Under these conditions, mice will initially try to escape and eventually develop immobility behavior; this behavior is interpreted as a passive stress-coping strategy or depression-like behavior. Swim tanks were positioned inside a box made of plastic. […] The duration of immobility was evaluated during the total 6 min of the test and expressed as duration (sec) of immobility. […]
In order to avoid the risk of obtaining the false positive\negative effects in the FST caused by a possible influence of the tested drugs on the locomotor activity, spontaneous locomotor activity was measured using an animal activity meter Opto-Varimex-4 Auto-Track (Columbus Instruments, USA). […] Spontaneous locomotor activity was evaluated between the 2nd and the 6th min, which corresponds with the time interval analysed in the FST. […]
Drug levels were 215 nM in the plasma. The NR2B receptor occupancy was determined to be 68%.

[2] = system: extracellular levels of serotonin (5-HT), noradrenaline, dopamine, acetylcholine and histamine; experiment: Extracellular neurotransmitter levels in rat prefrontal cortex and hippocampus; conditions: in vivo
[3] = molecular target: T1, NR2B-subtype receptors (Mus musculus, UniProt P35438+Q01097); experiment: NR2B receptor occupancy ex vivo (3H Ro 25-6981) after intravenous administration; assay type: in vivo, CD-1 mice
T1 construct: from tissue; host or cells: forebrain membrane homogenate of male CD-1 mice
Experimental: In this experiment, 8-10 weeks old male CD-1 mice (n=12) were administered intravenously in a vehicle consisting of 10% dimethylacetamide, 40% PEG-400, 30% hydroxypropyl betacyclodextrin, and 30% water with cyclic Prolyl Glycine (0.10 mg: rill, and the forebrains were harvested 15 minutes post-dosing by decapitation. The brain samples were immediately frozen and stored at −80′ C.
On the following day, the dosed brain samples were thawed on ice for 20-30 minutes followed by homogenization using Polytron for 10 seconds in cold homogenization buffer composed of 50 mM KH2PO4 (pH adjusted to 7.4 with KOH), 1 mM EDTA, 0.005% Triton X 100 and protease inhibitor cocktail (Fischer Scientific). The crude homogenates were further homogenized using a Bounce homogenizer (Thomas Scientific) and the homogenized membrane aliquots from all animals were […] and stored at −80° C. until further use. The whole homogenization process was performed on ice.
For determining occupancy, the membrane homogenates were thawed on ice and then needle homogenized using a 25-gauge needle. […] Non-specific binding was determined using 10 μM Ro 25-6981 added to the wells containing membrane homogenates from vehicle-dosed animals. […]

T1 sequence (Q01097 27-1482, other chains not shown): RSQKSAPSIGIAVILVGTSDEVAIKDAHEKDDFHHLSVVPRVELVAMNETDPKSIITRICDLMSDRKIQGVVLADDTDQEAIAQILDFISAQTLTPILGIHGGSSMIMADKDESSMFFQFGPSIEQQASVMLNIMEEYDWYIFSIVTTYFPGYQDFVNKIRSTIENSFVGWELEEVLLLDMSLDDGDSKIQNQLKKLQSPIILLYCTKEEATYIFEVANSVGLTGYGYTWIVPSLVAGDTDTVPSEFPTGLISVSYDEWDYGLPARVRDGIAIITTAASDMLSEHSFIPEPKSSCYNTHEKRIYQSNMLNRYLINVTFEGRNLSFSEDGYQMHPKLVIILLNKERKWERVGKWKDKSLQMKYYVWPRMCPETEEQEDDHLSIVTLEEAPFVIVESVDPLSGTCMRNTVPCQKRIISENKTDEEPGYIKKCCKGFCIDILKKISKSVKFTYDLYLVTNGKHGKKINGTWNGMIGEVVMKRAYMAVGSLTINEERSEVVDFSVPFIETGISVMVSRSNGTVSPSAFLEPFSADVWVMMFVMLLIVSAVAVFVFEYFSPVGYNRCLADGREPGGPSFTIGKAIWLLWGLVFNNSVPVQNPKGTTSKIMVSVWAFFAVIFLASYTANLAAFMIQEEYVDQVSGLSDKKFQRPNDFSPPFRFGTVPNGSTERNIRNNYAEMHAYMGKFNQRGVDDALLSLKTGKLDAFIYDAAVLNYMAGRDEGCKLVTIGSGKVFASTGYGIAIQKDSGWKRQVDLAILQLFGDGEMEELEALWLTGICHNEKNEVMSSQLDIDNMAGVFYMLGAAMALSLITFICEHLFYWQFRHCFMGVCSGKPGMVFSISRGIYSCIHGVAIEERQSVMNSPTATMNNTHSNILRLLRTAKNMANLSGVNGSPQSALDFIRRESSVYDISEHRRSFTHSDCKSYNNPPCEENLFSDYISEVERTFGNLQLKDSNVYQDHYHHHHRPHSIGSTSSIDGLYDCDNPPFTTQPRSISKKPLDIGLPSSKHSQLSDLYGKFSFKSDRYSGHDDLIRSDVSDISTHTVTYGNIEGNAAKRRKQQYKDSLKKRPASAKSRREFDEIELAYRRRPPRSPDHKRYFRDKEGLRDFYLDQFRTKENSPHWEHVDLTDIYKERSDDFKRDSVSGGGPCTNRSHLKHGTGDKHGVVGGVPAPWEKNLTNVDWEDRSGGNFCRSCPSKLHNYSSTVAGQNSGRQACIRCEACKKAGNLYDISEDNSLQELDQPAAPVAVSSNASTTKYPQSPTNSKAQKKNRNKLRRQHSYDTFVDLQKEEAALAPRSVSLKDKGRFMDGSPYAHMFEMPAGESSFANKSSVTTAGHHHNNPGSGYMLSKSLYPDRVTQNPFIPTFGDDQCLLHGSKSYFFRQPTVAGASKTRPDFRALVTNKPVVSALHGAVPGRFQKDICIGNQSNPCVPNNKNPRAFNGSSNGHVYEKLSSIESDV

receptor occupancy at 1 mg/kg ([3]; 1 mg/Kg i.v., at the end of FST): 73%
receptor occupancy at 3 mg/kg ([3]; 3 mg/Kg i.v., forebrains harvested 15 minutes post-dosing): 93%
Structure (SMILES): O=C1NCC(=O)N2CCC[C@@H]12 [cPG, cyclic Prolyl Glycine]
immobility time [1]: statistically significant decrease
extracellular levels of serotonin (5-HT), noradrenaline, dopamine, acetylcholine and histamine [2]: increases
